Data published in patent US20250144099A1, “INK4 TUMOR SUPPRESSOR PROTEINS MEDIATE RESISTANCE TO CDK4/6 KINASE INHIBITORS” (MEMORIAL SLOAN-KETTERING CANCER CENTER, priority 2021, published 2025).

Assays:
[1] = tested on: CDK6 expression in PTEN knockdown cells; assay: Immunoblotting of CDK6 expression in PTEN knockdown cells; assay type: cell-based, human; design: dose or concentration left out as unconfirmed; conditions: MK-2206 as printed
Experimental: Cell lysates were collected in RIPA buffer (Thermo Fisher Scientific) supplemented with protease and phosphatase inhibitors (Pierce). Protein concentration was quantified by using the BCA kit (Fisher Scientific). […] of protein lysates were loaded onto 4-12% SDS-PAGE gels (Invitrogen) for electrophoresis and transferred onto nitrocellular membranes. Blots were blocked with Intercept™ (TBS) Blocking Buffer (LI-COR Bioscience #927-60001) and incubated with primary antibody at 4° C. overnight. Secondary antibodies conjugated with fluorescence (LI-COR Bioscience #926-68071 and #926-32210) were incubated for 1 h at room temperature and blots were scanned by Odyssey Clx Imaging System from LI-COR Bioscience.

CDK6 = CDK6 (Homo sapiens, UniProt Q00534); assay: IP-in vitro kinase assay (ADP-Glo, Rb substrate) of immunoprecipitated CDK6; assay type: biochemical; design: Upregulation of wild-type CDK6 expression as a recurrent mechanism; endogenous in cells; host or cells: MCF-7 FAT1 CRISPR knockout (CDK6-high) cells; conditions: IP-CDK6 from resistant CDK6-high (FAT1 loss) MCF7 cells, pre-treatment with 100 nM abemaciclib
Experimental: IP-in vitro kinase assay. […] Lysates were collected as described above. […] of cell lysates were incubated with […] CDK4 (# sc-23896, Santa Cruz Biotechnology) or CDK6 (# sc-177-G, Santa Cruz Biotechnology) antibody at 4° C. overnight. 20 μl of ChIP-grade magnetic beads (Thermo Fisher Scientific) was added into each IP tube and incubated for 2 hours. IP samples were washed 2 times with kinase lysis buffer and 2 times with kinase reaction buffer (40 mM Tris-HCl [pH 7.5], 20 mM MgCl2, 0.1 mg/ml BSA, from SignalChem, #K03-09, with […] DTT adding freshly). 100 μl of kinase reaction buffer with 0.5 μg of recombinant human Rb1 protein and 100 μM of ATP was added into each tube.

Sequence of CDK6 (Q00534 whole entry): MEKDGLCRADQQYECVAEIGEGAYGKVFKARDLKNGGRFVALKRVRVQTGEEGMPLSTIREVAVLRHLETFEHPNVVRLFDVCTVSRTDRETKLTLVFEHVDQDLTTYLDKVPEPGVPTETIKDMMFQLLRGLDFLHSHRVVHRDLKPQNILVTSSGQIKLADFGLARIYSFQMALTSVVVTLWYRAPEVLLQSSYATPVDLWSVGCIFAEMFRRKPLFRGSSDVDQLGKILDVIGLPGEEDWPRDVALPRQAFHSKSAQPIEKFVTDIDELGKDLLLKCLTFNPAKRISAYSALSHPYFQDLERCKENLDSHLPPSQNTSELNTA
Sequence of CDK6 (P30281 whole entry partner): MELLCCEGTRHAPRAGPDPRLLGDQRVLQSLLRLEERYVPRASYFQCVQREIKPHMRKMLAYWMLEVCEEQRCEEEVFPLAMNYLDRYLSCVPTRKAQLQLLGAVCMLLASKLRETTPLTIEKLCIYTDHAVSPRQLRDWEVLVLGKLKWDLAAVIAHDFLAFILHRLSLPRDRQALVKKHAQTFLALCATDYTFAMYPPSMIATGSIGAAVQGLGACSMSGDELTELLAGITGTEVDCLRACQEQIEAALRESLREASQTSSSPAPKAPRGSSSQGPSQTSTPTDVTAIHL

| CDK6 activity reduced compared to untreated (CDK6) [%] | Structure (SMILES) | CDK6 expression [1] |
| --- | --- | --- |
| – | NC1(c2ccc(-c3nc4ccn5c(=O)[nH]nc5c4cc3-c3ccccc3)cc2)CCC1 [MK-2206] | suppressed the expression of CDK6 |
| 48 | CCN1CCN(Cc2ccc(Nc3ncc(F)c(-c4cc(F)c5nc(C)n(C(C)C)c5c4)n3)nc2)CC1 [abemaciclib] | – |
